Source: PubChem BioAssay (NCI)
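The compound was tested at five concentrations on cells cultured in 96-well plates, with a 48-hour exposure period. TGI denotes the concentration required for complete inhibition of growth.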

Columns and labels:
Test in all cases: NCI anticancer screen, dose series, 48 h
[1] = system: A498 renal
[2] = system: BT-549 breast
[3] = system: CAKI-1 renal
[4] = system: CCRF-CEM leukemia
[5] = system: HCC-2998 colon
[6] = system: HCT-116 colon
[7] = system: K-562 leukemia
[8] = system: M14 melanoma
[9] = system: MDA-MB-435
[10] = system: OVCAR-8 ovarian
[11] = system: SK-MEL-2 melanoma
[12] = system: SNB-75 CNS
[13] = system: UACC-257 melanoma
[14] = system: DU-145 prostate
[15] = system: OVCAR-3 ovarian

| Structure (SMILES) | TGI [1] [µM] | TGI [2] [µM] | TGI [3] [µM] | TGI [4] [µM] | TGI [5] [µM] | TGI [6] [µM] | TGI [7] [µM] | TGI [8] [µM] | TGI [9] [µM] | TGI [10] [µM] | TGI [11] [µM] | TGI [12] [µM] | TGI [13] [µM] | TGI [14] [µM] | TGI [15] [µM] |
| --- | --- | --- | --- | --- | --- | --- | --- | --- | --- | --- | --- | --- | --- | --- | --- |
| CCOC(=O)C(NC(=O)Nc1ccccc1F)(OC)C(F)(F)F (stereo not given) | > 100 | > 100 | > 100 | > 100 | > 100 | > 100 | > 100 | > 100 | > 100 | > 100 | > 100 | > 100 | > 100 | – | – |
| C/C(O)=C/c1nc2sc(C)c(C)c2c(=O)s1 | > 100 | > 100 | > 100 | > 100 | – | > 100 | > 100 | > 100 | > 100 | > 100 | 65.1 | > 100 | > 100 | > 100 | > 100 |
| COC(=O)/C=C(\S/C(=C(/c1ccccc1)n1cc(C(=O)OC)c(C(=O)OC)n1)c1ccccc1)C(=O)OC | > 100 | 98.7 | 6.66 | 31.3 | – | 37.1 | 31.8 | 29.8 | 32.9 | 3.88 | 35.8 | 95.2 | 23.9 | 29.1 | 8.29 |
| CN(N=O)C(N)=NC(=O)c1ccccc1 | > 100 | > 100 | > 100 | > 100 | – | > 100 | > 100 | > 100 | > 100 | > 100 | > 100 | > 100 | > 100 | – | > 100 |
| COc1ccc(-n2c(-c3ccccc3)cc(-c3cccs3)c2-c2cccs2)cc1 | > 100 | – | > 100 | 32.7 | > 100 | > 100 | – | > 100 | > 100 | > 100 | – | > 100 | > 100 | > 100 | > 100 |
| c1ccc(NC2(c3nnnn3C3CCCCC3)CCNCC2)cc1 | 51 | – | – | 55.4 | 27.3 | 28.5 | – | 35.8 | 38 | 81.9 | – | 32.7 | 30.6 | > 100 | – |
| COC(=O)C1CCCCCCCCCCC12SCCCS2 (stereo not given) | 49.7 | – | 96.3 | 51.1 | 61 | 30.2 | 56.7 | 31 | 36.2 | 48.8 | 41.9 | 81.2 | 40.2 | 39.2 | 41 |
| O=C(CC(C(=O)c1ccsc1)c1cccs1)c1ccsc1 (stereo not given) | > 100 | – | > 100 | > 100 | > 100 | – | > 100 | > 100 | > 100 | > 100 | > 100 | > 100 | > 100 | > 100 | – |
| O=C1NCC2=C1CCC1c3ccccc3CCN21 (stereo not given) | > 100 | – | > 100 | > 100 | > 100 | > 100 | – | – | – | > 100 | > 100 | > 100 | > 100 | – | > 100 |
| COc1cccc(/C=N/[N-]C(N)=O)c1[O-].[OH3+].[Zn+2] | > 100 | – | > 100 | > 100 | > 100 | > 100 | > 100 | > 100 | – | > 100 | > 100 | > 100 | > 100 | – | > 100 |
| O=C1c2cc([N+](=O)[O-])cnc2S(=O)(=O)N1c1ccc(Oc2ccccc2)cc1 | – | > 100 | – | > 100 | > 100 | > 100 | > 100 | > 100 | > 100 | > 100 | > 100 | > 100 | – | > 100 | > 100 |
| Cc1[nH]c2ncn(N)c(=N)c2c1Cc1ccccc1 | > 100 | > 100 | > 100 | > 100 | > 100 | > 100 | > 100 | > 100 | > 100 | > 100 | > 100 | > 100 | > 100 | – | > 100 |
| COC1(CCO)CC=CCC1(CCO)OC (stereo not given) | – | > 100 | > 100 | > 100 | – | > 100 | > 100 | > 100 | – | > 100 | > 100 | > 100 | > 100 | > 100 | > 100 |
| COC(=O)C(NC(=O)C12CCC(C)(C(=O)O1)C2(C)C)c1cc(C(C)(C)C)c(O)c(C(C)(C)C)c1 (stereo not given) | > 100 | > 100 | > 100 | > 100 | – | > 100 | > 100 | > 100 | > 100 | > 100 | > 100 | > 100 | – | > 100 | > 100 |
